In assay [1] the test system is A(H1N1)pdm09 virus neuraminidase (NA). It counts as biochemical, influenza A(H1N1)pdm09 virus.
For assay [2], the system named is A(H3N2) virus neuraminidase (NA). It counts as biochemical, influenza A(H3N2) virus.
Assay [3] has as its system B/Victoria-lineage virus neuraminidase (NA). The format is biochemical, influenza B/Victoria-lineage virus.
Assay [4] relates to A(H1N1)pdm09 viruses. It counts as cell-based, influenza A(H1N1)pdm09 virus.
The subject of assay [5] is A(H3N2) viruses. It counts as cell-based, influenza A(H3N2) virus.
Assay [6] relates to B/Victoria-lineage viruses. The format is cell-based, influenza B/Victoria-lineage virus.
Assay [7] relates to influenza viruses. The format is cell-based, influenza virus.
For assay [8], the system named is recombinant A(H1N1) virus. The note with it: PA-A37S in a recombinant A(H1N1) virus; ref Hashimoto et al., 2021; cited from earlier work.
Assay [9] has as its system influenza viruses. The note with it: PA-I38V, PA-E199G alone, when present in other subtypes; ref PA marker table; cited from earlier work.

“And” between values parts separate entries of the source, which are not always exact repeats. Identical values can stand only once. Bounds are passed on as bounds.

`[H]/N=C(\N)N[C@H]1C=C(C(=O)O)O[C@@H]([C@H](OC)[C@H](O)CO)[C@@H]1NC(C)=O` [Laninamivir, laninamivir]: in assay [1], the “inhibition phenotype (NI/RI/HRI)” value is given as “RI (key: normal inhibition (NI) is a <10-fold increase in the NAI IC50; RI is a 10- to 100-fold increase; HRI is a >100-fold increase)”.
`CCOC(=O)C1=C[C@@H](OC(CC)CC)[C@H](NC(C)=O)[C@@H](N)C1` [Oseltamivir, oseltamivir]: the “inhibition phenotype (NI/RI/HRI)” value was “RI (key: normal inhibition (NI) is a <10-fold increase in the NAI IC50; RI is a 10- to 100-fold increase; HRI is a >100-fold increase)” in assay [2] and “RI/HRI” in assay [3].
For the compound `CCC(CC)[C@H](NC(C)=O)[C@@H]1[C@H](O)[C@@H](C(=O)O)C[C@H]1N=C(N)N` [Peramivir, peramivir], in [2], the “IC50 fold-change as compared to reference median IC50 values” was 2 fold and 1.5 fold and 1 fold; the “IC50 fold-change compared to reference median IC50 values” is 2 (1) fold and 1.5 fold and 1 fold.
On to `CC(=O)N[C@H]1[C@H]([C@H](O)[C@H](O)CO)OC(C(=O)O)=C[C@@H]1N=C(N)N` [Zanamivir, zanamivir], for which, in [2], the “inhibition phenotype (NI/RI/HRI)” value is on record as “RI (key: normal inhibition (NI) is a <10-fold increase in the NAI IC50; RI is a 10- to 100-fold increase; HRI is a >100-fold increase)”.
In the case of `COC(=O)OCOc1c2n(ccc1=O)N([C@@H]1c3ccccc3SCc3c1ccc(F)c3F)[C@@H]1COCCN1C2=O` [baloxavir, baloxavir marboxil], in assay [4], the “Fold-change in susceptibility to baloxavir compared to PA sequence-matched control virus” value was 4.7 [4.1] fold and 2.90 [3.7] fold; the “fold increase in EC50 compared to a PA sequence matched control” value was found to be 4.1 fold. Further, in assay [5], the “fold increase in EC50 compared to the respective PA sequence-matched controls” value is listed as below 3 fold. In [6], the “EC50 fold-change as compared to reference median EC50” value was 0.88 [1.5] fold and 0.6 fold; the “Fold-change in susceptibility to baloxavir compared to PA sequence-matched control virus” value was 0.88 [1.5] fold. Besides, in [7], the “change in baloxavir susceptibility” value was “no change” and the “fold increase in EC50 as compared to the respective median EC50s” value is reported as below 3 fold. The “effect of substitution on baloxavir susceptibility” value in [8] is recorded as “did not alter baloxavir susceptibility”. In addition, the “effect of substitutions on in vitro baloxavir susceptibility” value in assay [9] was “little or no effect”.

The values are drawn from PMC9254721, “Global update on the susceptibilities of human influenza viruses to neuraminidase inhibitors and the cap-dependent endonuclease inhibitor baloxavir, 2018–2020” (Antiviral research, 2022).
